Assay results: ChEMBL document CHEMBL1143403, “Location of persisting mycobacteria in a Guinea pig model of tuberculosis revealed by r207910” (2007)

Assays:
[1] = tested on: Mycobacterium tuberculosis; type: functional, Spleen; conditions: dose 5 mg/kg; route oral
[2] = tested on: Mycobacterium tuberculosis; type: functional; conditions: dose 10 mg/kg; route oral
[3] = tested on: Mycobacterium tuberculosis; type: functional, Spleen; conditions: dose 10 mg/kg; route oral
[4] = tested on: Mycobacterium tuberculosis; type: functional, Spleen; conditions: dose 15 mg/kg; route oral
[5] = tested on: Mycobacterium tuberculosis; type: functional; conditions: dose 15 mg/kg; route oral
[6] = tested on: Mycobacterium tuberculosis; type: functional; conditions: dose 5 mg/kg; route oral

## COc1nc2ccc(Br)cc2cc1[C@@H](c1ccccc1)[C@](O)(CCN(C)C)c1cccc(F)c1
[1]
  log10cfu: 0.54
[2]
  CFU: 251
  log10cfu: 1.29
[3]
  log10cfu: 0.46
[4]
  log10cfu: 0.98
[5]
  CFU: 46
  log10cfu: 0.93
[6]
  CFU: 358
  log10cfu: 2.27
